According to patent publication US20250179047A1, “5-[7-(3,4-DIHYDRO-1H-ISOQUINOLINE-2-CARBONYL)-1,2,3,4 TETRAHYDROISOQUINOLIN-6-YL]-1H-PYRROLE-3-CARBOXAMIDE DERIVATIVES, PHARMACEUTICAL COMPOSITIONS CONTAINING THEM AND THEIR USES AS PRO-APOPTOTIC AGENTS” (LES LABORATOIRES SERVIER, priority 2022, published 2025):

Legend:
BCL2 WT = BCL2 WT (Homo sapiens (Human), UniProt P10415); test: TR-FRET competitive binding assay, BCL2 WT; conditions: Ki determined from IC50, read-out: TR_FRET EKI_Bcl2 WT
Method in brief: (§1)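 Competitive TR-FRET displacement of fluorescein-PUMA peptide (2 or 20 nM) from 0.5 nM terbium-labelled N-terminal Halo-fusion BCL2 (1-207, wild type or mutant) or BCLXL (2-196), expressed in E. coli. Buffer 50 mM Hepes pH 7.5, 150 mM NaCl, 5% DMSO; 2 h at 23°C. 520/495 nm ratio fitted over 11 points for IC50, converted to Ki.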

BCL2 G101V [1] = biological target: BCL2 G101V (Homo sapiens, UniProt P10415, G101V); test: TR-FRET competitive binding assay, BCL2 G101V; conditions: BCL2 G101V; Ki determined from IC50; read-out: TR_FRET EKI_Bcl2 G101V
Method in brief: as §1

BCL2 G101V [2] = test: TR-FRET competitive binding assay, BCL2 G101V; design: species or system human; conditions: ratio Ki BCL2 G101V / Ki BCL2 WT
Method in brief: as §1

BCL2 D103Y = BCL2 D103Y (Homo sapiens, UniProt P10415, D103Y); test: TR-FRET competitive binding assay, BCL2 D103Y; conditions: Ki determined from IC50, read-out: TR_FRET EKI_Bcl2 D103Y
Method in brief: as §1

BCL2 F104I = BCL2 F104I (Homo sapiens, UniProt P10415, F104I); test: TR-FRET competitive binding assay, BCL2 F104I; conditions: Ki determined from IC50, read-out: TR_FRET EKI_Bcl2 F104I
Procedure: (§2) The relative binding potency of each compound was determined in a competitive binding assay using time resolved-fluorescence resonance energy transfer (TR-FRET). The method utilised a fluorescein labelled peptide derived from PUMA (5Flu-Ahx-[…]-NH2 wherein Ahx means 6-hexanoic acid monomer and the amino acid sequence is referred to as SEQ ID:01) which binds to a terbium labelled BCL2 or BCLXL protein. The degree of binding or corresponding compound inhibition can be quantified by the TR-FRET signal between the terbium donor and fluorescein acceptor.
(§3) The human BCL2_wild-type (also named BCL2_wt), BCL2_G101V mutant and BCLXL_wild-type were E. coli expressed as a N-terminal Halo-fusion proteins and singly labelled with Terbium on the Halo protein to afford the following amino acid sequences:
(§4) wherein the BCL2(1-207) sequence corresponds to UniProtKB® primary accession number P10415 and the BCLXL(2-196) sequence corresponds to UniProtKB® primary accession number Q07817-1.
(§5) The assay was performed in a 40 μL volume in white 384-standard well plates (Corning #3574). An 11-point serial dilution of each compound was prepared in DMSO and transferred directly to plate followed by addition of fluorescein labelled peptide and lastly protein. Final assay conditions were 0.5 nM BCL2_wt, BCL2_G101V, BCL2_D103Y, BCL2_F104I, BCL2_D111A or BCLXL_wt, 2 or 20 nM fluorescein labelled peptide, 50 mM Hepes pH 7.5, 150 mM NaCl, 0.5 mM TCEP (Tris(2-carboxyethyl)phosphine), 0.05% Tween 20, 5% DMSO. The mixture was incubated for 2 hours at 23° C.
(§6) TR-FRET measurements were performed on a Biotek Synergy Neo plate reader. TR-FRET was measured by excitation of the Terbium-donor at 340 nm and subsequent (delay time 100 μs) measurement of terbium and fluorescein emission at 495 nm and 520 nm, respectively, over a collection time of 300 μs. The TR-FRET signal was calculated as the emission-ratio at 520 nm over 495 nm.
(§7) The TR-FRET ratio readout for test compounds was normalized against 0% inhibition controls wells and 100% inhibition control wells. Test compound potency (IC50) was estimated by nonlinear regression using the sigmoidal dose-response (variable slope) using Xlfit 4 (IDBS, Guildford, Surrey, UK, model 205). Were the IC50 could not be determined the % inhibition at the highest tested concentration is given.
(§8) y=(A+((B−A)/(1+((C/x)^D))))
(§9) where y is the normalized TR-TRET ratio measurement for a given concentration of test compound, x is the concentration of test compound, A is the estimated efficacy (% inhibition) at infinite compound dilution, and B is the maximal efficacy (% inhibition). C is the IC50 value and D is the Hill slope coefficient.
(§10) The K1 values were determined from the IC50 values according to Cer et al, Nucleic Acids Res, 2009, July 1; 37 (WebServer issue): W441-W445.

BCL2 D111A = BCL2 D111A (Homo sapiens, UniProt P10415, D111A); test: TR-FRET competitive binding assay, BCL2 D111A; conditions: Ki determined from IC50, read-out: TR_FRET EKI_Bcl2 D111A
Procedure: as §2, §3, §4, §5, §6, §7, §8, §9, §10

BCLXL WT = BCLXL WT (Homo sapiens (Human), UniProt Q07817); test: TR-FRET competitive binding assay, BCLXL WT; conditions: for Ki: BCLXL WT, Ki determined from IC50, read-out: TR_FRET EKI BclxL; for TR_FRET EKI BCLxL/WT selectivty ratio: ratio Ki BCLxL / Ki BCL2 WT
Method in brief: as §1

KMS-12-PE Bcl-2 WT = test: In vitro cytotoxicity CellTiter-Glo 48 h, KMS-12-PE Bcl-2 WT; format: cell-based; conditions: C50 = concentration needed to reach 50% of the cellular viability
Method in brief: (§11)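 KMS-12-PE myeloma cells were lentivirally transduced with wild-type or G101V-mutant Bcl-2 and sorted by TagRFP. They were exposed to compounds as 11-point dose responses for 48 h at 37 °C, 5% CO2. Viability was read by CellTiter-Glo ATP luminescence, and C50 was the concentration giving 50% viability.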

KMS-12-PE Bcl-2 G101V = test: In vitro cytotoxicity CellTiter-Glo 48 h, KMS-12-PE Bcl-2 G101V; format: cell-based; conditions: for Ratio (G101V/WT): C50 KMS-12-PE Bcl-2 G101V over C50 KMS-12-PE Bcl-2 WT; for IC50: 48 h, CellTiter-Glo, C50 = concentration needed to reach 50% of the cellular viability
Method in brief: as §11

BCLXL WT, sequence (Q07817 other isoform, or with tags, fused parts or gaps): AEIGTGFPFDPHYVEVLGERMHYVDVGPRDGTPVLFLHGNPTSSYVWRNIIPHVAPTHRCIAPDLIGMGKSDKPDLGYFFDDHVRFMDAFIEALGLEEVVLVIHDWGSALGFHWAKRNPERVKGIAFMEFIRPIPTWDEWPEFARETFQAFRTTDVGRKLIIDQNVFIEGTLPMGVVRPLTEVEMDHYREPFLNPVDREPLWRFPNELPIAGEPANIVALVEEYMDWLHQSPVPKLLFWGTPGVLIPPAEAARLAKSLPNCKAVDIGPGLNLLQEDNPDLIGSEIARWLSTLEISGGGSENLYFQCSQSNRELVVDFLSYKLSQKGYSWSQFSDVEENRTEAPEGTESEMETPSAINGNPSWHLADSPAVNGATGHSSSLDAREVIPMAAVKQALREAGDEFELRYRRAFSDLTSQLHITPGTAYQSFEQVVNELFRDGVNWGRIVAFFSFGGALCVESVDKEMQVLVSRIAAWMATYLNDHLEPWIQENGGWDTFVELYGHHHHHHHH

Row | SMILES | Ki (BCL2 WT) | Ki (BCL2 G101V [1]) | TR_FRET EKI G101V/WT selectivty ratio (BCL2 G101V [2]) | Ki (BCL2 D103Y) | Ki (BCL2 F104I) | Ki (BCL2 D111A) | Ki (BCLXL WT) | TR_FRET EKI BCLxL/WT selectivty ratio (BCLXL WT) | IC50 (KMS-12-PE Bcl-2 WT; Homo sapiens, KMS-12-PE) | Ratio (G101V/WT) (KMS-12-PE Bcl-2 G101V) | IC50 (KMS-12-PE Bcl-2 G101V; Homo sapiens, KMS-12-PE) | IC50 (KMS-12-PE Bcl-2 WT) | IC50 (KMS-12-PE Bcl-2 G101V)
1 | Cc1c(N(C(=O)c2cc(-c3cc4c(cc3C(=O)N3Cc5ccccc5C[C@H]3C)CN(C(=O)c3cnc(-c5ccccc5)s3)CC4)n(C)c2C)c2ccc(O)cc2)cc(C#N)n1C [Example 17, N-(5-cyano-1,2-dimethyl-1H-pyrrol-3-yl)-N-(4-hydroxyphenyl)-1,2-dimethyl-5-{7-[(3R)-3-methyl-1,2,3,4-tetrahydroisoquinoline-2-carbonyl]-2-(2-phenyl-1,3-thiazole-5-carbonyl)-1,2,3,4-tetrahydroisoquinolin-6-yl}-1H-pyrrole-3-carboxamide] | 0.65 nM | 4 nM | 6.2 | 4.1 nM | 33.9 nM | 3.34 nM | 9.6 nM | 14.8 | 0.0032 µM | 4.51 | 0.0144 µM |  | 
2 | Cc1c(N(C(=O)c2cc(-c3cc4c(cc3C(=O)N3Cc5ccccc5C[C@H]3C)CN(C(=O)C(F)(F)c3ccccc3)CC4)n(C)c2C)c2ccc(O)cc2)cc(C#N)n1C [Example 18, N-(5-cyano-1,2-dimethylpyrrol-3-yl)-5-[2-(2,2-difluoro-2-phenylacetyl)-7-{[(3R)-3-methyl-3,4-dihydro-1H-isoquinolin-2-yl]carbonyl}-3,4-dihydro-1H-isoquinolin-6-yl]-N-(4-hydroxyphenyl)-1,2-dimethylpyrrole-3-carboxamide] | 0.3 nM | 4.2 nM | 14.0 | 1.23 nM | 53.5 nM | 2.65 nM | 30.2 nM | 100.7 | 0.0055 µM | 8.67 | 0.0477 µM |  | 
3 | Cc1c(N(C(=O)c2cc(-c3cc4c(cc3C(=O)N3Cc5ccccc5C[C@H]3C)CN(C(=O)C3CCN(c5ccccc5)C3=O)CC4)n(C)c2C)c2ccc(O)cc2)cc(C#N)n1C (some centres unmarked) [Example 29] | 0.67 nM | 6.9 nM | 10.3 | 0.98 nM | 78 nM | 1.29 nM | 13.1 nM | 19.6 |  | 3.62 |  | 0.0164 µM | 0.0594 µM

Now from value to molecule, other results behind:

Row | Ki (BCL2 WT) | Ki (BCL2 G101V [1]) | TR_FRET EKI G101V/WT selectivty ratio (BCL2 G101V [2]) | Ki (BCL2 D103Y) | Ki (BCL2 F104I) | Ki (BCL2 D111A) | Ki (BCLXL WT) | TR_FRET EKI BCLxL/WT selectivty ratio (BCLXL WT) | SMILES | IC50 (KMS-12-PE Bcl-2 WT; Homo sapiens, KMS-12-PE) | Ratio (G101V/WT) (KMS-12-PE Bcl-2 G101V) | IC50 (KMS-12-PE Bcl-2 G101V; Homo sapiens, KMS-12-PE) | IC50 (KMS-12-PE Bcl-2 WT) | IC50 (KMS-12-PE Bcl-2 G101V)
4 | 0.1 nM | 0.2 nM | 1.9 | 0.19 nM | 0.26 nM | 0.12 nM | 1.1 nM | 11.6 | Cc1c(N(C(=O)c2cc(-c3cc4c(cc3C(=O)N3Cc5ccccc5C[C@H]3C)CN(C(=O)Cc3ccc(OCCN5CCC(O)CC5)cc3)CC4)n(C)c2C)c2ccc(O)cc2)cc(C#N)n1C [Example 30, N-(5-cyano-1,2-dimethyl-1H-pyrrol-3-yl)-N-(4-hydroxyphenyl)-5-[2-(2-{4-[2-(4-hydroxypiperidin-1-yl)ethoxy]phenyl}acetyl)-7-[(3R)-3-methyl-1,2,3,4-tetrahydroisoquinoline-2-carbonyl]-1,2,3,4-tetrahydroisoquinolin-6-yl]-1,2-dimethyl-1H-pyrrole-3-carboxamide] | 0.0191 µM | 4.76 | 0.0909 µM |  | 
5 | 0.11 nM | 0.3 nM | 2.6 | 0.4 nM | 0.52 nM | 0.26 nM | 1.3 nM | 11.8 | Cc1c(N(C(=O)c2cc(-c3cc4c(cc3C(=O)N3Cc5ccccc5C[C@H]3C)CN(C(=O)Cc3ccc(OCCN5CCN(C6CC6)CC5)cc3)CC4)n(C)c2C)c2ccc(O)cc2)cc(C#N)n1C [Example 31, N-(5-cyano-1,2-dimethyl-1H-pyrrol-3-yl)-5-[2-(2-{4-[2-(4-cyclopropylpiperazin-1-yl)ethoxy]phenyl}acetyl)-7-[(3R)-3-methyl-1,2,3,4-tetrahydroisoquinoline-2-carbonyl]-1,2,3,4-tetrahydroisoquinolin-6-yl]-N-(4-hydroxyphenyl)-1,2-dimethyl-1H-pyrrole-3-carboxamide] | 0.0077 µM | 4.05 | 0.0312 µM |  | 
6 | 0.26 nM | 0.7 nM | 2.6 | 1.35 nM | 0.77 nM | 0.27 nM | 2.6 nM | 10.0 | Cc1c(N(C(=O)c2cc(-c3cc4c(cc3C(=O)N3Cc5ccccc5C[C@H]3C)CN(C(=O)Cc3ccc(OCCN(C)C5CC5)cc3)CC4)n3c2CCCC3)c2ccc(O)cc2)cc(C#N)n1C [Example 35, N-(5-cyano-1,2-dimethyl-pyrrol-3-yl)-3-[2-[2-[4-[2-[cyclopropyl(methyl)amino]ethoxy]phenyl]acetyl]-7-[(3R)-3-methyl-3,4-dihydro-1H-isoquinoline-2-carbonyl]-3,4-dihydro-1H-isoquinolin-6-yl]-N-(4-hydroxyphenyl)-5,6,7,8-tetrahydroindolizine-1-carboxamide] | 0.0068 µM | 3.75 | 0.0254 µM |  | 
7 | 0.11 nM | 0.3 nM | 2.5 | 0.33 nM | 0.16 nM | 0.06 nM | 1.4 nM | 12.7 | Cc1c(N(C(=O)c2cc(-c3cc4c(cc3C(=O)N3Cc5ccccc5C[C@H]3C)CN(C(=O)Cc3ccc(OCCN5CCN6CCOC[C@@H]6C5)cc3)CC4)n(C)c2C)c2ccc(O)cc2)cc(C#N)n1C [Example 36, 5-{2-[2-(4-{2-[(9aS)-octahydropyrazino[2,1-c][1,4]oxazin-8-yl]ethoxy}phenyl)acetyl]-7-[(3R)-3-methyl-1,2,3,4-tetrahydroisoquinoline-2-carbonyl]-1,2,3,4-tetrahydroisoquinolin-6-yl}-N-(5-cyano-1,2-dimethyl-1H-pyrrol-3-yl)-N-(4-hydroxyphenyl)-1,2-dimethyl-1H-pyrrole-3-carboxamide] | 0.0103 µM | 3.75 | 0.0386 µM |  | 
